Test results published in US6472348B1, “Pyridone derivatives and herbicides” (Kumiai Chemical Industry Co., Ltd., priority 1996, dated 2002).

Key:
[1] = system: barnyardgrass (Ec); test: Test Example 1: herbicidal effects by paddy field soil treatment; assay type: in vivo; details: 100 g of the active ingredient per 10 ares, 21st day after the application, index 0-5 of Table 47;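 further: grade of growth control; 5 = at least 90%; 4 = 70 to 90%; 3 = 50 to 70%; 2 = 30 to 50%; 1 = 10 to 30%; 0 = under 10%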
Procedure, shortened: (§1)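 Scoring of herbicidal effect came 21 days after application of 100 g active ingredient per 10 ares to flooded (3 cm) paddy-soil pots sown with barnyardgrass, monochoria and bulrush, kept in a greenhouse.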

[2] = system: bulrush (Sc); test: as above; assay type: in vivo; details: 100 g of the active ingredient per 10 ares, 21st day after the application, index 0-5 of Table 47;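 further: grade of growth control; 5 = at least 90%; 4 = 70 to 90%; 3 = 50 to 70%; 2 = 30 to 50%; 1 = 10 to 30%; 0 = under 10%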
Procedure, shortened: as §1

[3] = system: monochoria (Mo); test: as above; assay type: in vivo; details: 100 g of the active ingredient per 10 ares, 21st day after the application, index 0-5 of Table 47;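 further: grade of growth control; 5 = at least 90%; 4 = 70 to 90%; 3 = 50 to 70%; 2 = 30 to 50%; 1 = 10 to 30%; 0 = under 10%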
Procedure, shortened: as §1

[4] = system: Digitaria ciliaris (Di); test: Test Example 2: herbicidal effects by upland field soil treatment; assay type: in vivo; details: 100 g of the active ingredient per 10 ares, evaluated on the 21st day after application;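 further: grade of growth control; 5 = at least 90%; 4 = 70 to 90%; 3 = 50 to 70%; 2 = 30 to 50%; 1 = 10 to 30%; 0 = under 10%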
Source text: (§2) (Test on Herbicidal Effects by Upland Field Soil Treatment)

[5] = system: barnyardgrass (Ec); test: as above; assay type: in vivo; details: 100 g of the active ingredient per 10 ares, evaluated on the 21st day after application
Source text: as §2

[6] = system: common lambsquarters (Ch); test: as above; assay type: in vivo; details: 100 g of the active ingredient per 10 ares, evaluated on the 21st day after application
Source text: as §2

[7] = system: pale smartweed (Po); test: as above; assay type: in vivo; details: 100 g of the active ingredient per 10 ares, evaluated on the 21st day after application
Source text: as §2

[8] = system: rice flatsedge (Ci); test: as above; assay type: in vivo; details: 100 g of the active ingredient per 10 ares, evaluated on the 21st day after application
Source text: as §2

[9] = system: slender amaranth (Am); test: as above; assay type: in vivo; details: 100 g of the active ingredient per 10 ares, evaluated on the 21st day after application
Source text: as §2

[10] = system: Diaitaria ciliaris (Di); test: Test Example 3: herbicidal effects by upland field foliage treatment; assay type: in vivo; design: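 grade of growth control; 5 = at least 90%; 4 = 70 to 90%; 3 = 50 to 70%; 2 = 30 to 50%; 1 = 10 to 30%; 0 = under 10%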; details: 100 g active ingredient per 10 ares, evaluated 14th day after treatment
Procedure, shortened: (§3)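 Using plants cultured for 2 weeks in a greenhouse from seed sown in soil-covered sand (pots 120 cm^2), the compounds were applied to foliage, and weed control was graded by standard criteria 14 days thereafter.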

[11] = system: barnyardgrass (Ec); test: as above; assay type: in vivo; design: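 grade of growth control; 5 = at least 90%; 4 = 70 to 90%; 3 = 50 to 70%; 2 = 30 to 50%; 1 = 10 to 30%; 0 = under 10%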; details: 100 g active ingredient per 10 ares, evaluated 14th day after treatment
Procedure, shortened: as §3

[12] = system: common lambsquarters (Ch); test: as above; assay type: in vivo; design: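 grade of growth control; 5 = at least 90%; 4 = 70 to 90%; 3 = 50 to 70%; 2 = 30 to 50%; 1 = 10 to 30%; 0 = under 10%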; details: 100 g active ingredient per 10 ares, evaluated 14th day after treatment
Procedure, shortened: as §3

[13] = system: pale smartweed (Po); test: as above; assay type: in vivo; design: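 grade of growth control; 5 = at least 90%; 4 = 70 to 90%; 3 = 50 to 70%; 2 = 30 to 50%; 1 = 10 to 30%; 0 = under 10%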; details: 100 g active ingredient per 10 ares, evaluated 14th day after treatment
Procedure, shortened: as §3

[14] = system: rice flatsedge (Ci); test: as above; assay type: in vivo; design: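 grade of growth control; 5 = at least 90%; 4 = 70 to 90%; 3 = 50 to 70%; 2 = 30 to 50%; 1 = 10 to 30%; 0 = under 10%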; details: 100 g active ingredient per 10 ares, evaluated 14th day after treatment
Procedure, shortened: as §3

[15] = system: slender amaranth (Am); test: as above; assay type: in vivo; design: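 grade of growth control; 5 = at least 90%; 4 = 70 to 90%; 3 = 50 to 70%; 2 = 30 to 50%; 1 = 10 to 30%; 0 = under 10%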; details: 100 g active ingredient per 10 ares, evaluated 14th day after treatment
Procedure, shortened: as §3

[16] = system: wheat (Tr); test: Test Example 9: crop plant selectivity by upland field foliage treatment (wheat), phytotoxicity; details: dose 1.6 g ai/10a, 14th day after treatment
Experimental: (§4) (Test on Crop Plant Selectivity by Upland Field Foliage Treatment)
(§5) In a plastic pot (surface area: 600 cm^2) filled with sand, wheat (Tr), pale smartweed (Po), slender amaranth (Am), common lambsquarters (Ch) and China jute (Ab) were sown and cultured in a green house for 2 weeks. […] The plants were then cultured in a green house, and the evaluation of the herbicidal effects and phytotoxicity was conducted on the 14th day after the treatment in accordance with the standards as identified in Table 47.

[17] = system: China jute (Ab); test: Test Example 9: crop plant selectivity by upland field foliage treatment (wheat), herbicidal effects; assay type: in vivo; design: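 grade of growth control; 5 = at least 90%; 4 = 70 to 90%; 3 = 50 to 70%; 2 = 30 to 50%; 1 = 10 to 30%; 0 = under 10%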; details: dose 1.6 g ai/10a, 14th day after treatment
Experimental: as §4, §5

[18] = system: common lambsquarters (Ch); test: as above; assay type: in vivo; design: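 grade of growth control; 5 = at least 90%; 4 = 70 to 90%; 3 = 50 to 70%; 2 = 30 to 50%; 1 = 10 to 30%; 0 = under 10%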; details: dose 1.6 g ai/10a, 14th day after treatment
Experimental: as §4, §5

[19] = system: pale smartweed (Po); test: as above; assay type: in vivo; design: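 grade of growth control; 5 = at least 90%; 4 = 70 to 90%; 3 = 50 to 70%; 2 = 30 to 50%; 1 = 10 to 30%; 0 = under 10%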; details: dose 1.6 g ai/10a, 14th day after treatment
Experimental: as §4, §5

[20] = system: slender amaranth (Am); test: as above; assay type: in vivo; design: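 grade of growth control; 5 = at least 90%; 4 = 70 to 90%; 3 = 50 to 70%; 2 = 30 to 50%; 1 = 10 to 30%; 0 = under 10%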; details: dose 1.6 g ai/10a, 14th day after treatment
Experimental: as §4, §5

| Compound | Herbicidal effects Ec [1] | Herbicidal effects Sc [2] | Herbicidal effects Mo [3] | Herbicidal effects Di [4] | Herbicidal effects Ec [5] | Herbicidal effects Ch [6] | Herbicidal effects Po [7] | Herbicidal effects Ci [8] | Herbicidal effects Am [9] | Herbicidal effects Di [10] | Herbicidal effects Ec [11] | Herbicidal effects Ch [12] | Herbicidal effects Po [13] | Herbicidal effects Ci [14] | Herbicidal effects Am [15] | Phytotoxicity Tr [16] | Herbicidal effects Ab [17] | Herbicidal effects Ch [18] | Herbicidal effects Po [19] | Herbicidal effects Am [20] |
| --- | --- | --- | --- | --- | --- | --- | --- | --- | --- | --- | --- | --- | --- | --- | --- | --- | --- | --- | --- | --- |
| CC(Br)c1cc2c(-c3ccc(C(F)(F)F)n(C)c3=O)c(F)cc(Cl)c2o1 (stereo not shown) [Compound 4-34] | 5 | 5 | 5 | 5 | 5 | 5 | 5 | 5 | 5 | 5 | 5 | 5 | 5 | 5 | 5 | 2 | 5 | 5 | 5 | 5 |
| COC(C)c1cc2c(-c3ccc(C(F)(F)F)n(C)c3=O)c(F)cc(Cl)c2o1 (stereo not shown) [Compound 4-35] | – | – | – | 5 | 5 | 5 | 5 | 5 | 5 | 5 | 5 | 5 | 5 | 5 | 5 | 2 | 5 | 5 | 5 | 5 |
